Reference: the supplement of paper PMC4932681

Key:
ZR-75-1 [1] = assay: drug sensitivity score (DSS) (DSS (dimensionless)); higher = more sensitive; extreme values may be limits of the assay; settings: 72 h
In short: (§1)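 CellTiter-Glo viability was the readout, taken on a PHERAstar and normalised to vehicle-only and positive controls. It was measured after breast cancer cell lines and their resistant derivatives spent 72 h at 37 °C in 384-well plates containing library drugs at five concentrations spanning a 10 000-fold range, with 1 μM of the selecting drug in the medium of resistant lines. From logistic dose–response fits in the Breeze pipeline came drug sensitivity score, relative IC50 (curve midpoint) and top-dose inhibition.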

T-47D Tam2 [2] = assay: as above; settings: 4-OH-tamoxifen in medium 1 µM; 72 h
In short: as §1

MCF-7 Tam1 [3] = assay: as above; settings: 4-OH-tamoxifen in medium 1 µM; 72 h
In short: as §1

T-47D Tam1 [4] = assay: as above; settings: 4-OH-tamoxifen in medium 1 µM; 72 h
In short: as §1

BT-474 [5] = assay: as above; settings: 72 h
In short: as §1

MCF-7 [6] = assay: as above; settings: 72 h
In short: as §1

BT-474 Tam1 [7] = assay: as above; settings: 4-OH-tamoxifen in medium 1 µM; 72 h
In short: as §1

ZR-75-1 Tam1 [8] = assay: as above; settings: 4-OH-tamoxifen in medium 1 µM; 72 h
In short: as §1

BT-474 Tam2 [9] = assay: as above; settings: 4-OH-tamoxifen in medium 1 µM; 72 h
In short: as §1

T-47D [10] = assay: as above; settings: 72 h
In short: as §1

ZR-75-1 Tam2 [11] = assay: as above; settings: 4-OH-tamoxifen in medium 1 µM; 72 h
In short: as §1

ZR-75-1 [12] = assay: relative IC50 (midpoint of fitted logistic curve, plateau may be below 50% inhibition; CellTiter-Glo viability); higher = less potent; settings: 72 h
In short: as §1

T-47D Tam2 [13] = assay: as above; settings: 4-OH-tamoxifen in medium 1 µM; 72 h
In short: as §1

MCF-7 Tam1 [14] = assay: as above; settings: 4-OH-tamoxifen in medium 1 µM; 72 h
In short: as §1

T-47D Tam1 [15] = assay: as above; settings: 4-OH-tamoxifen in medium 1 µM; 72 h
In short: as §1

BT-474 [16] = assay: as above; settings: 72 h
In short: as §1

MCF-7 [17] = assay: as above; settings: 72 h
In short: as §1

BT-474 Tam1 [18] = assay: as above; settings: 4-OH-tamoxifen in medium 1 µM; 72 h
In short: as §1

ZR-75-1 Tam1 [19] = assay: as above; settings: 4-OH-tamoxifen in medium 1 µM; 72 h
In short: as §1

BT-474 Tam2 [20] = assay: as above; settings: 4-OH-tamoxifen in medium 1 µM; 72 h
In short: as §1

T-47D [21] = assay: as above; settings: 72 h
In short: as §1

ZR-75-1 Tam2 [22] = assay: as above; settings: 4-OH-tamoxifen in medium 1 µM; 72 h
In short: as §1

| Structure (SMILES) | drug sensitivity score (ZR-75-1 [1]; 4-OH-tamoxifen in medium 0 µM) | drug sensitivity score (ZR-75-1 [1]; 4-OH-tamoxifen in medium 1 µM) | drug sensitivity score (T-47D Tam2 [2]) | drug sensitivity score (MCF-7 Tam1 [3]) | drug sensitivity score (T-47D Tam1 [4]) | drug sensitivity score (BT-474 [5]; 4-OH-tamoxifen in medium 0 µM) | drug sensitivity score (BT-474 [5]; 4-OH-tamoxifen in medium 1 µM) | drug sensitivity score (MCF-7 [6]; 4-OH-tamoxifen in medium 0 µM) | drug sensitivity score (MCF-7 [6]; 4-OH-tamoxifen in medium 1 µM) | drug sensitivity score (BT-474 Tam1 [7]) | drug sensitivity score (ZR-75-1 Tam1 [8]) | drug sensitivity score (BT-474 Tam2 [9]) | drug sensitivity score (T-47D [10]; 4-OH-tamoxifen in medium 0 µM) | drug sensitivity score (T-47D [10]; 4-OH-tamoxifen in medium 1 µM) | drug sensitivity score (ZR-75-1 Tam2 [11]) | relative IC50 (ZR-75-1 [12]; 4-OH-tamoxifen in medium 0 µM) [µM] | relative IC50 (ZR-75-1 [12]; 4-OH-tamoxifen in medium 1 µM) [µM] | relative IC50 (T-47D Tam2 [13]) [µM] | relative IC50 (MCF-7 Tam1 [14]) [µM] | relative IC50 (T-47D Tam1 [15]) [µM] | relative IC50 (BT-474 [16]; 4-OH-tamoxifen in medium 0 µM) [µM] | relative IC50 (BT-474 [16]; 4-OH-tamoxifen in medium 1 µM) [µM] | relative IC50 (MCF-7 [17]; 4-OH-tamoxifen in medium 0 µM) [µM] | relative IC50 (BT-474 Tam1 [18]) [µM] | relative IC50 (ZR-75-1 Tam1 [19]) [µM] | relative IC50 (BT-474 Tam2 [20]) [µM] | relative IC50 (T-47D [21]; 4-OH-tamoxifen in medium 0 µM) [µM] | relative IC50 (T-47D [21]; 4-OH-tamoxifen in medium 1 µM) [µM] | relative IC50 (ZR-75-1 Tam2 [22]) [µM] | relative IC50 (MCF-7 [17]; 4-OH-tamoxifen in medium 1 µM) [µM] |
| --- | --- | --- | --- | --- | --- | --- | --- | --- | --- | --- | --- | --- | --- | --- | --- | --- | --- | --- | --- | --- | --- | --- | --- | --- | --- | --- | --- | --- | --- | --- |
| Oc1ncc(N(CCCl)CCCl)c(O)n1 [Uracil mustard] | 0 | 0 | 0 | 0 | 0 | 0 | 0 | 0 | 0.208 | 0 | 0 | 0 | 0 | 0 | 0 | > 10 | > 10 | > 10 | > 10 | > 10 | > 10 | > 10 | > 10 | > 10 | > 10 | > 10 | > 10 | > 10 | > 10 |  |
| O=C(O)C1(C(=O)O)CCC1.[NH2-].[NH2-].[Pt+2] [Carboplatin] | 0 | 0 | 0 | 0 | 0 | 0 | 0 | 0 | 0 | 0 | 0 | 0 | 0 | 0 | 0 | > 10 | > 10 | > 10 | > 10 | > 10 | > 10 | > 10 | > 10 | > 10 | > 10 | > 10 | > 10 | > 10 | > 10 | > 10 |
| CN[C@@H]1C[C@H]2O[C@@](C)([C@@H]1OC)n1c3ccccc3c3c4c(c5c6ccccc6n2c5c31)C(=O)N[C@H]4O [UCN-01] | 9.37 | 6.62 | 8.25 | 14.3 | 10.2 | 10.8 | 13.3 | 17.1 | 15.8 | 13.4 | 8.97 | 15.6 | 9.64 | 8.4 | 9.41 | 0.437 | 1.01 | 0.855 | 0.486 | 0.736 | 0.467 | 0.525 | 0.198 | 0.588 | 0.615 | 0.409 | 0.598 | 0.864 | 0.686 | 0.355 |
| O=P(O)(O)C(O)(Cn1ccnc1)P(=O)(O)O [Zoledronic acid] | 0 | 0 | 0 | 0 | 0 | 0 | 0 | 0 | 0 | 0 | 0 | 0 | 0 | 0 | 0 | > 10 | > 10 | > 10 | > 10 | > 10 | > 10 | > 10 | > 10 | > 10 | > 10 | > 10 | > 10 | > 10 | > 10 | > 10 |
